From patent publication US8440628B2, “Medical compositions containing ghrelin” (Daiichi Sankyo Company, Limited, priority 2002, dated 2013)

Key:
Format in all cases: physicochemical
[1] = Stability of human ghrelin in 0.1M HCl and Mcllvain buffer solutions of various pH at 25°C (Example 2, HPLC peak area ratio)
Protocol: Human ghrelin was dissolved in the following aqueous solutions in the concentration of about 0.15 μmol/mL (0.5 mg/mL).
0.1M HCl aqueous solution (pH: 1.1)
The pH was adjusted with 0.1M citric aqueous acid and 0.2M dibasic sodium phosphate aqueous solution.
Each solution were stored at 25±2° C. for 8, 24, 48 and 72 hours respectively, and the obtained solutions were detected by HPLC analysis in comparison to the solutions before storage. […] No significant changes of pH in solution before storage and after storage were observed.

[2] = Stability of human ghrelin in Britton-Robinson buffer solutions of various pH at 40°C (Example 3); details: pH range of 2 to 7, stored at 40° C. for 1 day (FIG. 3)
Protocol: Human ghrelin, which is one of the ghrelins, was dissolved in the Britton-Robinson buffer solutions which is adjusted by combining 0.04M phosphoric acid-acetic acid-boric acid aqueous solution and 0.2M sodium hydrate aqueous solution in appropriate ratio, having pH of 2.1, 3.1, 4.0, 5.0, 6.0, 7.0 and 7.9 to obtain an aqueous solution containing human ghrelin in the concentration of about 0.15 μmol/mL (0.5 mg/mL). The obtained solution was filled in brownish glass ampoules and the ampoules were sealed with fire. For the calculation of kinetic constant, the certain degrees of degradation products have to be occurred in the aqueous solution of the ghrelins, and therefore, the ampoules were stored at 40±1° C., which was severe conditions for storage. The concentration (residual ratio) of human ghrelin was conducted by HPLC with time. At the same time, the pH of the solution was measured and it was confirmed that there was no significant changes of pH in solution.
The kinetic constants in each pH solution were calculated from the sequential change of the residual ratio, and the results were shown in FIG. 2.

[3] = Stability of human ghrelin in pH-adjusted purified water at 25°C (Example 7); details: for Peak area ratio to total peak area: 25±2°C
Protocol: Human ghrelin was dissolved in the purified water with about 0.03 μmol/mL (0.1 mg/mL). […] This solution was divided into quarter, and one portion was kept alone and the pH values of the remaining three portions were adjusted to pH 1.8 (with 17 mM of hydrochloric acid), pH 3.9 (with 0.20 mM of hydrochloric acid) and pH 7.8 (with 0.24 mM of sodium hydroxide) respectively, by adding along with hydrochloric acid or sodium hydroxide aqueous solution.

With “[3-Dehydroalanine]human ghrelin [Dha compound]” the “Production of the degradation product in human ghrelin solution” value (“Production of the degradation product” for short) ([1]; Mcllvain buffer, pH range of 3.0 to 5.0, 25±2°C, up to 72 hours) was “inhibited”, the “Peak area ratio to total peak area” value ([1]; human ghrelin 0.5 mg/mL in 0.1M HCl aqueous solution, pH 1, 25±2°C, 8 hr. after) was 0.15% and the “Peak area ratio to total peak area” value ([1]; human ghrelin 0.5 mg/mL in 0.1M HCl aqueous solution, pH 1, 25±2°C, 24 hr. after) was 0.09%. For the same substance, the “Peak area ratio to total peak area” value ([1]; human ghrelin 0.5 mg/mL in 0.1M HCl aqueous solution, pH 1, 25±2°C, 48 hr. after) was 0.04%, the “Peak area ratio to total peak area” value ([1]; human ghrelin 0.5 mg/mL in 0.1M HCl aqueous solution, pH 1, 25±2°C, 72 hr. after) was 0.00% and the “Peak area ratio to total peak area” value ([1]; human ghrelin 0.5 mg/mL in 0.1M HCl aqueous solution, pH 1, 25±2°C, before storage) was 0.21%. The “Peak area ratio to total peak area” value ([1]; human ghrelin 0.5 mg/mL in Mcllvain buffer, pH 2, 25±2°C, 8 hr. after) was 0.20%, the “Peak area ratio to total peak area” value ([1]; human ghrelin 0.5 mg/mL in Mcllvain buffer, pH 2, 25±2°C, 24 hr. after) was 0.23% and the “Peak area ratio to total peak area” value ([1]; human ghrelin 0.5 mg/mL in Mcllvain buffer, pH 2, 25±2°C, 48 hr. after) was 0.24%. For the same substance, the “Peak area ratio to total peak area” value ([1]; human ghrelin 0.5 mg/mL in Mcllvain buffer, pH 2, 25±2°C, 72 hr. after) was 0.25%, the “Peak area ratio to total peak area” value ([1]; human ghrelin 0.5 mg/mL in Mcllvain buffer, pH 2, 25±2°C, before storage) was 0.20% and the “Peak area ratio to total peak area” value ([1]; human ghrelin 0.5 mg/mL in Mcllvain buffer, pH 3, 25±2°C, 8 hr. after) was 0.20%. For the same substance, the “Peak area ratio to total peak area” value ([1]; human ghrelin 0.5 mg/mL in Mcllvain buffer, pH 3, 25±2°C, 24 hr. after) was 0.23%, the “Peak area ratio to total peak area” value ([1]; human ghrelin 0.5 mg/mL in Mcllvain buffer, pH 3, 25±2°C, 48 hr. after) was 0.24% and the “Peak area ratio to total peak area” value ([1]; human ghrelin 0.5 mg/mL in Mcllvain buffer, pH 3, 25±2°C, 72 hr. after) was 0.25%. The “Peak area ratio to total peak area” value ([1]; human ghrelin 0.5 mg/mL in Mcllvain buffer, pH 3, 25±2°C, before storage) was 0.20%, the “Peak area ratio to total peak area” value ([1]; human ghrelin 0.5 mg/mL in Mcllvain buffer, pH 4, 25±2°C, 8 hr. after) was 0.20% and the “Peak area ratio to total peak area” value ([1]; human ghrelin 0.5 mg/mL in Mcllvain buffer, pH 4, 25±2°C, 24 hr. after) was 0.21%. The “Peak area ratio to total peak area” value ([1]; human ghrelin 0.5 mg/mL in Mcllvain buffer, pH 4, 25±2°C, 48 hr. after) was 0.22%, the “Peak area ratio to total peak area” value ([1]; human ghrelin 0.5 mg/mL in Mcllvain buffer, pH 4, 25±2°C, 72 hr. after) was 0.23% and the “Peak area ratio to total peak area” value ([1]; human ghrelin 0.5 mg/mL in Mcllvain buffer, pH 4, 25±2°C, before storage) was 0.20%. The “Peak area ratio to total peak area” value ([1]; human ghrelin 0.5 mg/mL in Mcllvain buffer, pH 5, 25±2°C, 8 hr. after) was 0.21%, the “Peak area ratio to total peak area” value ([1]; human ghrelin 0.5 mg/mL in Mcllvain buffer, pH 5, 25±2°C, 24 hr. after) was 0.21% and the “Peak area ratio to total peak area” value ([1]; human ghrelin 0.5 mg/mL in Mcllvain buffer, pH 5, 25±2°C, 48 hr. after) was 0.23%. For the same substance, the “Peak area ratio to total peak area” value ([1]; human ghrelin 0.5 mg/mL in Mcllvain buffer, pH 5, 25±2°C, 72 hr. after) was 0.24%, the “Peak area ratio to total peak area” value ([1]; human ghrelin 0.5 mg/mL in Mcllvain buffer, pH 5, 25±2°C, before storage) was 0.21% and the “Peak area ratio to total peak area” value ([1]; human ghrelin 0.5 mg/mL in Mcllvain buffer, pH 6, 25±2°C, 8 hr. after) was 0.21%. The “Peak area ratio to total peak area” value ([1]; human ghrelin 0.5 mg/mL in Mcllvain buffer, pH 6, 25±2°C, 24 hr. after) was 0.26%, the “Peak area ratio to total peak area” value ([1]; human ghrelin 0.5 mg/mL in Mcllvain buffer, pH 6, 25±2°C, 48 hr. after) was 0.31% and the “Peak area ratio to total peak area” value ([1]; human ghrelin 0.5 mg/mL in Mcllvain buffer, pH 6, 25±2°C, 72 hr. after) was 0.35%. For the same substance, the “Peak area ratio to total peak area” value ([1]; human ghrelin 0.5 mg/mL in Mcllvain buffer, pH 6, 25±2°C, before storage) was 0.20%, the “Peak area ratio to total peak area” value ([1]; human ghrelin 0.5 mg/mL in Mcllvain buffer, pH 7, 25±2°C, 8 hr. after) was 0.25% and the “Peak area ratio to total peak area” value ([1]; human ghrelin 0.5 mg/mL in Mcllvain buffer, pH 7, 25±2°C, 24 hr. after) was 0.43%. The “Peak area ratio to total peak area” value ([1]; human ghrelin 0.5 mg/mL in Mcllvain buffer, pH 7, 25±2°C, 48 hr. after) was 0.61%, the “Peak area ratio to total peak area” value ([1]; human ghrelin 0.5 mg/mL in Mcllvain buffer, pH 7, 25±2°C, 72 hr. after) was 0.79% and the “Peak area ratio to total peak area” value ([1]; human ghrelin 0.5 mg/mL in Mcllvain buffer, pH 7, 25±2°C, before storage) was 0.22%. The “Peak area ratio to total peak area” value ([1]; human ghrelin 0.5 mg/mL in Mcllvain buffer, pH 8, 25±2°C, 8 hr. after) was 0.68%, the “Peak area ratio to total peak area” value ([1]; human ghrelin 0.5 mg/mL in Mcllvain buffer, pH 8, 25±2°C, 24 hr. after) was 1.39% and the “Peak area ratio to total peak area” value ([1]; human ghrelin 0.5 mg/mL in Mcllvain buffer, pH 8, 25±2°C, 48 hr. after) was 2.39%. The “Peak area ratio to total peak area” value ([1]; human ghrelin 0.5 mg/mL in Mcllvain buffer, pH 8, 25±2°C, 72 hr. after) was 3.12%, the “Peak area ratio to total peak area” value ([1]; human ghrelin 0.5 mg/mL in Mcllvain buffer, pH 8, 25±2°C, before storage) was 0.24% and the “Production of the degradation product” value [2] was “inhibited”. The “Production of the degradation product” value ([3]; aqueous solution of pH 3.9 and 4.7, 25±2°C, up to 3 days) was “inhibited”, the “Peak area ratio to total peak area” value ([3]; human ghrelin 0.1 mg/mL in purified water adjusted to pH 1.8 with hydrochloric acid, 1 day after) was 0.31% and the “Peak area ratio to total peak area” value ([3]; human ghrelin 0.1 mg/mL in purified water adjusted to pH 1.8 with hydrochloric acid, before storage) was 0.20%. The “Peak area ratio to total peak area” value ([3]; human ghrelin 0.1 mg/mL in purified water adjusted to pH 3.9 with hydrochloric acid, 1 day after) was 0.20%, the “Peak area ratio to total peak area” value ([3]; human ghrelin 0.1 mg/mL in purified water adjusted to pH 3.9 with hydrochloric acid, 3 days after) was 0.19% and the “Peak area ratio to total peak area” value ([3]; human ghrelin 0.1 mg/mL in purified water adjusted to pH 3.9 with hydrochloric acid, before storage) was 0.20%. The “Peak area ratio to total peak area” value ([3]; human ghrelin 0.1 mg/mL in purified water adjusted to pH 7.8 with sodium hydroxide, 1 day after) was 0.86%, the “Peak area ratio to total peak area” value ([3]; human ghrelin 0.1 mg/mL in purified water adjusted to pH 7.8 with sodium hydroxide, before storage) was 0.24% and the “Peak area ratio to total peak area” value ([3]; human ghrelin 0.1 mg/mL in purified water, pH 4.7 (not adjusted), 1 day after) was 0.21%. For the same substance, the “Peak area ratio to total peak area” value ([3]; human ghrelin 0.1 mg/mL in purified water, pH 4.7 (not adjusted), 3 days after) was 0.21% and the “Peak area ratio to total peak area” value ([3]; human ghrelin 0.1 mg/mL in purified water, pH 4.7 (not adjusted), before storage) was 0.20%.
